These results are taken from US8450479B2, “3-substituted-4-oxo-3,4-dihydro-imidazo[5,1-d][1,2,3,5-tetrazine-8-carboxylic acid amides and their use” (Pharminox Limited, priority 2007, dated 2013).

For orientation: GI50 means the concentration giving 50% growth inhibition.

Assay [1] concerns Glioma SNB19VR (MGMT−) (TMZ resistant). Description: MTT assay for 7-day toxicity assay. It counts as cell-based. For orientation: Formazan colour is commonly taken as a measure of viable cells.
Assay [2] relates to range of other cell lines (e.g., colon, melanoma). Description: MTT assay, other cell lines. It counts as cell-based. To be noted: for activity in words: other lines (e.g., colon, melanoma). The text has this: This assay was first described in Mosmann, T., 1983, “Rapid colorimetric assay for cellular growth and survival: Application to proliferation and cytotoxicity assays”, Journal of Immunological Methods, Vol. 65, Nos. 1-2, pp. 55-63.
Glioma cell lines, SNB19 and U373, both MGMT transfected (i.e., SNB19M and U373M) and vector controls (i.e., SNB19V and U373V); colorectal carcinoma cell lines, HCT116, HT29, and DLD1; melanoma cell line, SKMEL-28; breast cell line, MCF-7; and normal human fetal lung fibroblast cell line, MRC-5; were harvested at 60-80% confluence—during the logarithmic phase of growth.
Following harvesting, cells in suspension were gently syringed through a 23 gauge needle to obtain a near-single cell suspension. The desired cell seeding densities were used and added into 96-well plates in 180 μL culture medium if only one test compound was to be added, or 160 μL if two test compounds were to be added in combination, which were allowed to attach at 37° C. (5% CO2) overnight. For the 7 day assay, the cell seeding density for different cell lines was as follows: SNB19V, SNB19M: 650 cells/well; U373V, U373M: 650 cells/well; SNB19VR, U373VR: 650 cells/well; HCT116, DLD-1, SKMEL-28, MRC-5, MCF-7: 400 cells/well.
The two peripheral lanes were used as blank wells (cell free) and filled with 200 μL of medium in order to minimise medium evaporation from the plate. A separate time zero (T0) plate was set up alongside other plates. Serial dilutions in tissue culture medium of a 100 mM stock of test compound in DMSO were prepared immediately before each assay to ten times the final concentrations required, and then 20 μL was added to each well (200 μL total media per well) to achieve final concentrations of 0.5 μM, 1 μM, 5 μM, 10 μM, 50 μM, 100 μM, 500 μM, and 1000 μM. A minimum of four wells received the same test compound concentration. To control wells, including those in the T0 plate, 20 μL of medium was added. Previous assays had been carried out to verify that cell viability was not affected by the amount of DMSO added into the test compound-treated wells. A separate plate treated in the same way, but free of test compound, was used as a measure of cell viability at the time of drug addition (day 0).
After incubation at 37° C., 5% CO2 for 7 days (or immediately for the day 0 plate), cell viability was quantified using the MTT assay. 50 μL of sterile filtered MIT (3-(4,5-dimethylthiazol-2-yl)-2,5-diphenyltetrazolium bromide) (2 mg/mL in phosphate buffered saline) were added to each well (final concentration 0.4 mg/mL) and the plates were re-incubated for 4 hours to allow metabolic conversion of MTT by dehydrogenases in viable cells to insoluble formazan crystals. The medium and any unconverted MTT was aspirated, 150 μL of DMSO was added to each well, and the plates were shaken on a plate shaker (Stuart Scientific 503) to ensure complete formazan solubilisation.
The intensity of absorbance is directly proportional to cell viability. A linear relationship exists between cell number and the amount of formazan and so the mean absorbance determined for each well of the same concentration can be used as a quantitative measure of viable cells compared to the controls. A graph of absorbance against drug concentration was plotted and the test compound concentration (GI50) causing 50% inhibition of control cell growth (absorbance increase from day 0) was calculated by interpolation.

Where [3] appears, read: 168 h, Glioma SNB19VR (MGMT−, TMZ resistant), 7-day MTT, single determinations, read-out: GI50.
[4] abbreviates: Glioma SNB19VR (MGMT−) (TMZ resistant), read-out: GI50.
The mark [5] stands for this setting: Glioma SNB19VR (MGMT−, TMZ resistant), 7-day MTT, single determinations, read-out: GI50.

“And” between values parts separate entries of the source, which are not always exact repeats. Identical values can stand only once. Like-named read-outs stand apart in the source and are kept apart here.

For the molecule `Cn1nnc2c(C(N)=O)ncn2c1=O` [TMZ, 3-Methyl-4-oxo-3,4-dihydro-imidazo[5,1-d][1,2,3,5]tetrazine-8-carboxylic acid amide, reference compound], the GI50 was 314 µM in assay [1] (setting [3]); 280 µM in assay [1] (setting [4]); 251 µM and 275 µM and 282 µM (2×) and 294 µM and 263 µM in assay [1] (setting [5]); 280 µM in assay [1] (Glioma SNB19VR (MGMT−, TMZ resistant), average of Table 1, read-out: TMZ GI50 Average); 200 to 700 µM in assay [2] (range of other cell lines (Table 1)).

In the case of `COCn1nnc2c(C(N)=O)ncn2c1=O` [PX-020], the concentration for 50% growth inhibition (GI50) in assay [1] (setting [4]) is 25.8 µM and 28.9 µM and 27.8 µM and 29.2 µM and 16.8 µM.

In the case of `C[C@H](c1ccccc1)n1nnc2c(C(N)=O)ncn2c1=O` [BB-001, (R)-3-(-1-Phenylethyl)-8-carbamoylimidazotetrazin-4-one], the concentration for 50% growth inhibition (GI50) in assay [1] (setting [3]) stood at 46.6 µM.

On to `CCOC(=O)Cn1nnc2c(C(N)=O)ncn2c1=O` [PX-016], for which the GI50 came to 37.6 µM in assay [1] (setting [3]) and 62 µM in assay [1] (setting [5]).

As to `C[S+]([O-])Cn1nnc2c(C(N)=O)ncn2c1=O` (stereo not drawn) [UU-003, 3-Methanesulfinylmethyl-4-oxo-3,4-dihydro-imidazo[5,1-d][1,2,3,5]tetrazine-8-carboxylic acid amide], the activity in words result in assay [2] was “surprising efficacy”.

Take `C#CCn1nnc2c(C(N)=O)ncn2c1=O` [EE-001, 3-Propargyl-8-carbamoylimidazotetrazin-4-one]: the GI50 in assay [1] (setting [3]) amounted to 54.9 µM. For the same molecule, the activity in words result in assay [2] is on record as “more potent than TMZ”.
